Measured values published in patent US8735384B2, “Amino heteroaryl compounds as beta-secretase modulators and methods of use” (Amgen Inc., priority 2010, dated 2014).
pIC50: −log10 of the molar value. Where two headings read alike, the source gives them in different places.

Tests used:
BACE1 = BACE1 (Homo sapiens, UniProt P56817); test: In vitro enzymatic BACE FRET assay; format: biochemical; conditions: beta secretase enzyme 0.2 nM, FRET substrate 50 nM, pH 4.2; read-out: BACE1 FRET assay (IC50 class)
Chain of BACE1 (P56817 46-501, species assumed): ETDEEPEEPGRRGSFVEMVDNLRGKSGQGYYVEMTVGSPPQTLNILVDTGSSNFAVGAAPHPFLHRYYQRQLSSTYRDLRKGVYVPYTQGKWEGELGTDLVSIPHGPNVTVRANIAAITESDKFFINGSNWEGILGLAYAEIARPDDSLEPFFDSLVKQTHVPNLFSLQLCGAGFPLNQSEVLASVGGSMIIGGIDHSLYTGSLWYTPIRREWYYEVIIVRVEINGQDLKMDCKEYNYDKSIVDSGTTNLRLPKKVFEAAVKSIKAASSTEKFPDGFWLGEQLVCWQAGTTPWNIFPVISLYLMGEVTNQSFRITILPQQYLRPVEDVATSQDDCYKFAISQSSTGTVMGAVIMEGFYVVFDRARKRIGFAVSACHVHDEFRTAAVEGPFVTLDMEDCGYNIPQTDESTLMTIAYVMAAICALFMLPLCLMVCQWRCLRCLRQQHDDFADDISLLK
Procedure: In Vitro Enzymatic BACE FRET (Fluorescence Resonance Energy Transfer) Assay (Enzyme Assay Data in Table 1)
The assay buffer used in this screen is 0.05 M acetate, pH 4.2, 10% DMSO final, 100 uM genapol (which is a nonionic detergent, below its Critical Micelle Concentration). The beta secretase enzyme (0.2 nM) is pre-incubated for one hour with inhibitors, typically in about 1 uL of DMSO according to a serial dilution, are added thereto. The assay is effectively started by the addition of FRET substrate (50 nM) and the combination is incubated for one hour. The FRET assay is terminated with by addition of Tris buffer, which raises the pH to neutrality, and the fluorescence is determined. The FRET substrate is a peptide with commercially available fluorophore and quencher, on opposite sides of the BACE cleavage site. Proteolytic cleavage of the FRET substrate releases quenching of fluorescence (excitation […] and […]).
Of the compounds tested, the in-vitro BACE FRET enzyme data for each of Examples 1-220, where available at the time of filing this application, is provided in Table 1.

[1] = tested on: Aβ40 in conditioned medium of cells stably expressing Amyloid Precursor Protein (APP); test: In vitro BACE cell-based assay (HEK cell assay), Aβ40 sandwich ELISA; conditions: inhibition of Aβ40, 24 h incubation, read-out: HEK cell assay (IC50 class)
Procedure: In Vitro BACE Cell-Based Assay:
The cell-based assay measures inhibition or reduction of Aβ40 in conditioned medium of test compound treated cells expressing amyloid precursor protein.
Cells stably expressing Amyloid Precursor Protein (APP) were plated at a density of 40K cells/well in 96 well plates (Costar). The cells were cultivated for 24 hours at 37° C. and 5% CO2 in DMEM supplemented with 10% FBS. The test compounds were then added to cells in 10-point dose response concentrations with the starting concentration being either 100 μM or 10 μM. The compounds were diluted from stock solutions in DMSO and the final DMSO concentration of the test compounds on cells was 0.1%. After 24 h of incubation with the test compounds the supernatant conditioned media was collected and the Aβ 40 levels were determined using a sandwich ELISA. The IC50 of the compound was calculated from the percent of control or percent inhibition of Aβ 40 as a function of the concentration of the test compound.
The sandwich ELISA to detect Aβ 40 was performed in 96 well microtiter plates, which were pre-treated with goat anti-rabbit IgG (Pierce). The capture and detecting antibody pair that were used to detect Aβ 40 from cell supernatants were affinity purified pAb40 (Biosource) and biotinylated 6E10 (Signet Labs Inc.), respectively. The optimal concentration for the pAb40 antibody was 3 μg/ml in Superblock/TBS (Pierce) that was supplemented with 0.05% Tween 20 (Sigma). Optimal concentration for the detection antibody 6E10-biotinylated was 0.5 μg/ml in Superblock/TBS (Pierce) that had been supplemented with 2% normal goat serum and 2% normal mouse serum.
Cellular supernatants were incubated with the capture antibody for 3 h at 4° C., followed by 3 wash steps in TBS-tween (0.05%). The detecting antibody incubation was for 2 h at 4° C., again followed by the wash steps as described previously. The final readout of the ELISA is Time-Resolved Fluorescence (counts per minute) using Delfia reagents Streptavidin-Europium and Enhancement solutions (Perkin Elmer) and the Victor 2 multilabel counter (Perkin Elmer).

pIC50 (BACE1) | pIC50 [1] | pIC50 ([1]; Homo sapiens, HEK293, 24 h) | Molecule
> 7.00 | 5.30 to 6.00 | – | 2-(2-amino-3-(2,6-dimethylmorpholino)quinolin-6-yl)-N-ethyl-3-methyl-N-propylbenzamide [Example 216]
> 7.00 | 6.00 to 6.30 | – | Cc1cccc(C(=NO)c2ccccc2)c1-c1ccc2nc(N)c(N3CCOCC3)cc2c1 (stereo in doubt) [Example 16, (Z)-(2-(2-amino-3-morpholinoquinolin-6-yl)-3-methylphenyl)(phenyl)methanone oxime]
> 7.00 | – | 6.30 to 7.00 | Cc1cccc(C(=O)N2CCCC2)c1-c1ccc2nc(N)c(N3CCOCC3)cc2c1 [Example 1, (2-(2-amino-3-morpholinoquinolin-6-yl)-3-methylphenyl)(pyrrolidin-1-yl)methanone]
> 7.00 | – | 5.30 to 6.00 | Cc1cccc(C(=O)c2ccccc2)c1-c1ccc2nc(N)c(N3CCOCC3)cc2c1 [Example 2, (2-(2-amino-3-morpholinoquinolin-6-yl)-3-methylphenyl)(phenyl)methanone]
> 7.00 | – | 6.00 to 6.30 | Cc1ccccc1C(=O)c1cccc(C)c1-c1ccc2nc(N)c(N3CCOCC3)cc2c1 [Example 3, (2-(2-amino-3-morpholinoquinolin-6-yl)-3-methylphenyl)(o-tolyl)methanone]
6.30 to 7.00 | – | 6.00 to 6.30 | Cc1cccc(C2=NCCc3ccccc32)c1-c1ccc2nc(N)c(N3CCOCC3)cc2c1 [Example 4, 6-(2-(3,4-dihydroisoquinolin-1-yl)-6-methylphenyl)-3-morpholinoquinolin-2-amine]
6.30 to 7.00 | – | 6.00 to 6.30 | Cc1cccc(C(=O)C2CCCO2)c1-c1ccc2nc(N)c(N3CCOCC3)cc2c1 (stereo not shown) [Example 5, (2-(2-amino-3-morpholinoquinolin-6-yl)-3-methylphenyl)(tetrahydrofuran-2-yl)methanone]
> 7.00 | – | > 7.00 | COc1ccccc1C(=N)c1cccc(C)c1-c1ccc2nc(N)c(N3CCOCC3)cc2c1 [Example 6, 6-(2-(imino(2-methoxyphenyl)methyl)-6-methylphenyl)-3-morpholinoquinolin-2-amine]
> 7.00 | – | 6.30 to 7.00 | COc1ccccc1C(=O)c1cccc(C)c1-c1ccc2nc(N)c(N3CCOCC3)cc2c1 [Example 7, (2-(2-amino-3-morpholinoquinolin-6-yl)-3-methylphenyl)(2-methoxyphenyl)methanone]
5.30 to 6.00 | – | 5.30 to 6.00 | Cc1cccc(C(c2ccccc2)n2ccnc2)c1-c1ccc2nc(N)c(N3CCOCC3)cc2c1 (stereo not shown) [Example 8, 6-(2-((1H-imidazol-1-yl)(phenyl)methyl)-6-methylphenyl)-3-morpholinoquinolin-2-amine]
6.00 to 6.30 | – | 6.30 to 7.00 | Cc1cccc(C(c2ccccc2)N2CCCC2)c1-c1ccc2nc(N)c(N3CCOCC3)cc2c1 (stereo not shown) [Example 9, 6-(2-methyl-6-(phenyl(pyrrolidin-1-yl)methyl)phenyl)-3-morpholinoquinolin-2-amine]
5.30 to 6.00 | – | 6.30 to 7.00 | Cc1cccc(C2NCCc3ccccc32)c1-c1ccc2nc(N)c(N3CCOCC3)cc2c1 (stereo not shown) [Example 10, 6-(2-methyl-6-(1,2,3,4-tetrahydroisoquinolin-1-yl)phenyl)-3-morpholinoquinolin-2-amine]
6.30 to 7.00 | – | 5.30 to 6.00 | Nc1nc2ccc(-c3ccccc3C(=O)C3CCOCC3)cc2cc1N1CCOCC1 [Example 11, (2-(2-amino-3-morpholinoquinolin-6-yl)phenyl)(tetrahydro-2H-pyran-4-yl)methanone]
5.30 to 6.00 | – | < 5.30 | Nc1nc2ccc(-c3ccccc3C(O)C3CCOCC3)cc2cc1N1CCOCC1 (stereo not shown) [Example 12, (2-(2-amino-3-morpholinoquinolin-6-yl)phenyl)(tetrahydro-2H-pyran-4-yl)methanol]
6.30 to 7.00 | – | 5.30 to 6.00 | Nc1nc2ccc(-c3ccccc3CC3CCOCC3)cc2cc1N1CCOCC1 [Example 13, 3-morpholino-6-(2-((tetrahydro-2H-pyran-4-yl)methyl)phenyl)quinolin-2-amine]
6.30 to 7.00 | – | < 5.30 | CCCC(=N)c1cccc(C)c1-c1ccc2nc(N)c(N3CCOCC3)cc2c1 [Example 14, 6-(2-(1-iminobutyl)-6-methylphenyl)-3-morpholinoquinolin-2-amine]
> 7.00 | – | 6.00 to 6.30 | CO/N=C(\c1ccccc1)c1cccc(C)c1-c1ccc2nc(N)c(N3CCOCC3)cc2c1 [Example 15, (E)-(2-(2-amino-3-morpholinoquinolin-6-yl)-3-methylphenyl)(phenyl)methanone O-methyl oxime]
> 7.00 | – | > 7.00 | Cc1cccc(C(N)c2ccccc2)c1-c1ccc2nc(N)c(N3CCOCC3)cc2c1 (stereo not shown) [Example 17, 6-(2-(amino(phenyl)methyl)-6-methylphenyl)-3-morpholinoquinolin-2-amine]
> 7.00 | – | 5.30 to 6.00 | Cc1cccc(Cc2ccccc2)c1-c1ccc2nc(N)c(N3CCOCC3)cc2c1 [Example 18, 6-(2-benzyl-6-methylphenyl)-3-morpholinoquinolin-2-amine]
> 7.00 | – | 6.30 to 7.00 | Cc1cccc(C(=O)OC2CCCC2)c1-c1ccc2nc(N)c(N3CCOCC3)cc2c1 [Example 19, cyclopentyl 2-(2-amino-3-morpholinoquinolin-6-yl)-3-methylbenzoate]
> 7.00 | – | 6.00 to 6.30 | Cc1cccc(C(=O)N2CCCC2)c1-c1ccc2nc(N)c(N3CCOC[C@H]3C)cc2c1 [Example 20, (R)-(2-(2-amino-3-(3-methylmorpholino)quinolin-6-yl)-3-methylphenyl)(pyrrolidin-1-yl)methanone]
> 7.00 | – | 5.30 to 6.00 | CCC1CN(c2cc3cc(-c4c(C)cccc4C(=O)N4CCCC4)ccc3nc2N)CCO1 (stereo not shown) [Example 21, (2-(2-amino-3-(2-ethylmorpholino)quinolin-6-yl)-3-methylphenyl)(pyrrolidin-1-yl)methanone]
6.30 to 7.00 | – | 6.00 to 6.30 | Cc1cccc(-c2nnc3ccccn23)c1-c1ccc2nc(N)c(N3CCOCC3)cc2c1 [Example 22, 6-(2-([1,2,4]triazolo[4,3-a]pyridin-3-yl)-6-methylphenyl)-3-morpholinoquinolin-2-amine]
6.30 to 7.00 | – | < 5.30 | Cc1cccc(C(=O)c2ccncn2)c1-c1ccc2nc(N)c(N3CCOCC3)cc2c1 [Example 23, (2-(2-amino-3-morpholinoquinolin-6-yl)-3-methylphenyl)(pyrimidin-4-yl)methanone]
> 7.00 | – | < 5.30 | Cc1cccc(-c2cccc(C(F)(F)F)c2)c1-c1ccc2nc(N)c(N3CCOCC3)cc2c1 [Example 25, 6-(3-methyl-3′-(trifluoromethyl)biphenyl-2-yl)-3-morpholinoquinolin-2-amine]
6.30 to 7.00 | – | < 5.30 | Cc1cccc(C(=O)n2ccc3ccccc32)c1-c1ccc2nc(N)c(N3CCOCC3)cc2c1 [Example 26, (2-(2-amino-3-morpholinoquinolin-6-yl)-3-methylphenyl)(1H-indol-1-yl)methanone]
> 7.00 | – | 6.30 to 7.00 | Cc1cc(F)cc(C(=O)N2CCCC2)c1-c1ccc2nc(N)c(N3CCOCC3)cc2c1 [Example 27, (2-(2-amino-3-morpholinoquinolin-6-yl)-5-fluoro-3-methylphenyl)(pyrrolidin-1-yl)methanone]
> 7.00 | – | > 7.00 | Cc1cccc(C(=O)N2CCCC2)c1-c1ccc2nc(N)c(C3CCOCC3)cc2c1 [Example 28, (2-(2-amino-3-(tetrahydro-2H-pyran-4-yl)quinolin-6-yl)-3-methylphenyl)(pyrrolidin-1-yl)methanone]
6.30 to 7.00 | – | 5.30 to 6.00 | Cc1cccc(C(=O)N2CCCC2)c1-c1ccc2nc(N)c(C3CCCCO3)cc2c1 (stereo not shown) [Example 29, (2-(2-amino-3-(tetrahydro-2H-pyran-2-yl)quinolin-6-yl)-3-methylphenyl)(pyrrolidin-1-yl)methanone]
